The structures appear in SMILES notation.

Chain of PKMYT1 (Q99640 whole entry): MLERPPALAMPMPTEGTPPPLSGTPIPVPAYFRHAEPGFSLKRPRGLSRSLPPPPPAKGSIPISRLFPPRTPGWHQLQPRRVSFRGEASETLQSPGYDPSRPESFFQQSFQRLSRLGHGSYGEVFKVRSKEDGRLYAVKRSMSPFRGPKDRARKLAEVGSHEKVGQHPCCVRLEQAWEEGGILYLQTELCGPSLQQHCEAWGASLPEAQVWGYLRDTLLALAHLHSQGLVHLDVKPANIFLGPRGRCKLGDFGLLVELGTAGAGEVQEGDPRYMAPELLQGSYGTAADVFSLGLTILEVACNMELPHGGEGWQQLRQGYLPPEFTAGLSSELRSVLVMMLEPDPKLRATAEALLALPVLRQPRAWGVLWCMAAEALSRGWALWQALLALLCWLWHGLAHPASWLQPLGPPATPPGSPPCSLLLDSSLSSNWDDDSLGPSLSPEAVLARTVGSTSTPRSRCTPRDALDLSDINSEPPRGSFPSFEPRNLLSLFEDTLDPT

This experiment addresses PKMYT1 (Homo sapiens (Human), UniProt Q99640). As to the kind of experiment: PKMYT1 HTRF assay. The experiment is classed as binding. The settings on record: Tracer 178, GST-Tb, compound 10 μM to 0.5 nM. The method, then:
Compound serial dilution was performed by Echo, and the final concentrations varied from 10 μM to 0.5 nM. 5 μL/well of Enzyme solution was added to the assay plate containing the compound. The plate was centrifuged at 1000 rpm for 1 min, and incubated at 25° C. for 15 min. […] Next, 5 μL of GST-Tb was added into the assay plate, the plate was centrifuged at 1000 rpm for 1 min, and incubated at 25° C. for 15 min. The assay plate was read on Envision.
Background: TR-FRET usually uses a lanthanide donor and a delayed reading to cut background.
For the compound `Cc1ncc2c(C(N)=O)c(N)n(-c3c(C)ccc(O)c3Cl)c2n1` [Compound 4, 6-amino-7-(2-chloro-3-hydroxy-6-methylphenyl)-2-methylpyrrolo[2,3-d] pyrimidine-5-carboxamide], the IC50 (commonly the midpoint of a concentration-inhibition curve) was found to be 4.1 nM. On to `Cc1nc(N2CCC2)c2c(C(N)=O)c(N)n(-c3c(C)ccc(O)c3C)c2n1` (atropisomer, axis not shown) [Compound 8], for which half-maximal inhibition (IC50) was put at 13 nM. Then `Cc1nc(Oc2cnn(C)c2)c2c(C(N)=O)c(N)n(-c3c(C)ccc(O)c3C)c2n1` (atropisomer, axis not shown) [Compound 9], with 2.8 nM; and `Cc1nc(OCF)c2c(C(N)=O)c(N)n(-c3c(C)ccc(O)c3C)c2n1` [Compound 11], with 2.3 nM; and `Cc1ccc(O)c(C)c1-n1c(N)c(C(N)=O)c2cnc(C(F)(F)F)nc21` [Compound 2], with 8.9 nM. Compound `COc1nc(C)nc2c1c(C(N)=O)c(N)n2-c1c(C)ccc(O)c1C` (atropisomer, axis not shown) [Compound 7] returned an IC50 of 1.5 nM.

Take `Cc1nc(OC(F)F)c2c(C(N)=O)c(N)n(-c3c(C)ccc(O)c3C)c2n1` [Compound 10]: the half-maximal inhibitory concentration (IC50) amounted to 3.4 nM. In turn, `Cc1ccc(O)c(C)c1-n1c(N)c(C(N)=O)c2c(=O)n(C)c(C)cc21` [Compound 3, 2-amino-1-(3-hydroxy-2,6-dimethylphenyl)-5,6-dimethyl-4-oxopyrrolo[3,2-c]pyridine-3-carboxamide] showed an IC50 of 11.9 nM. `Cc1ccc(O)c(C)c1-n1c(N)c(C(N)=O)c2c(=O)n(CF)c(C)nc21` [Compound 12-P2] showed an IC50 of 1.5 nM.

For the origin of these results see patent US20250197405A1, “HETEROAROMATIC COMPOUNDS AS PKMYT1 INHIBITORS AND USE THEREOF” (INSILICO MEDICINE IP LIMITED, priority 2022, published 2025).
